According to ChEMBL document CHEMBL4725299, “Design and synthesis of peptidic partial agonists of human neuromedin U receptor 1 with enhanced serum stability” (Bioorg Med Chem Lett, 2020):
Starred links: 1 amine or outer side, 2 acyl side, 3 side chain; linkers in the order of their positions; H or OH if unused. Non-standard residues stand in square brackets, D forms with d. Residues, ends and D or L forms follow the SMILES beside them. *: point of attachment. X1 = O=C([C@H](Cc1ccc(Cc2ccccc2)cc1)N[*:1])[*:2]; Acetyl(2-naphthyloxy) = O=C(COc1ccc2ccccc2c1)*; Propanoyl(3-(3-pyridyl)) = O=C(CCc1cccnc1)*; Bip = N[C@@H](Cc1ccc(-c2ccccc2)cc1)C(=O)O; αMeW = C[C@](N)(Cc1c[nH]c2ccccc12)C(=O)O; 2Nal = N[C@@H](Cc1ccc2ccccc2c1)C(=O)O; Acetyl(2-thienyl) = O=C(Cc1cccs1)*; αMeF = C[C@](N)(Cc1ccccc1)C(=O)O; Tic = O=C(O)[C@@H]1Cc2ccccc2CN1

Legend:
[1] = Stability of the compound in 25% human serum assessed as residual rate at 50 uM incubated for 10 mins at 37 degreeC; type: ADME, cell-free; conditions: read-out: Stabilty
Neuromedin-U receptor 1 [2] = target: T1, Neuromedin-U receptor 1 (Homo sapiens, UniProt Q9HB89); test: Agonist activity at human NMUR1 expressed in CHO cells at 10 nM by calcium mobilization assay; type: cell-based; conditions: 0.01 µM
T1 sequence (Q9HB89 whole entry): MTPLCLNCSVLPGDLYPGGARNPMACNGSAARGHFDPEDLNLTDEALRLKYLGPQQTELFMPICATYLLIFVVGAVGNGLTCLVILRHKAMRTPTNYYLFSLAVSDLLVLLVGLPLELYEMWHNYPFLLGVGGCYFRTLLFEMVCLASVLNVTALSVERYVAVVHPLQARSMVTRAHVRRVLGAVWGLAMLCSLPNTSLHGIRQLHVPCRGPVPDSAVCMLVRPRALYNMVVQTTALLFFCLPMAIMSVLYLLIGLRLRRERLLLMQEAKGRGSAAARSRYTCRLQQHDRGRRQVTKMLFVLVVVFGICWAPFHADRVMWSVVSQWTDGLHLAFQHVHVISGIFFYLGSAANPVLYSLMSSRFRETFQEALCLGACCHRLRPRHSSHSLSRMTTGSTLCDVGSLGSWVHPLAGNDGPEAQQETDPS

Neuromedin-U receptor 2 [3] = target: T2, Neuromedin-U receptor 2 (Homo sapiens, UniProt Q9GZQ4); test: Agonist activity at human NMUR2 expressed in CHO cells at 10 nM by calcium mobilization assay; type: cell-based; conditions: 0.01 µM
T2 sequence (Q9GZQ4 whole entry): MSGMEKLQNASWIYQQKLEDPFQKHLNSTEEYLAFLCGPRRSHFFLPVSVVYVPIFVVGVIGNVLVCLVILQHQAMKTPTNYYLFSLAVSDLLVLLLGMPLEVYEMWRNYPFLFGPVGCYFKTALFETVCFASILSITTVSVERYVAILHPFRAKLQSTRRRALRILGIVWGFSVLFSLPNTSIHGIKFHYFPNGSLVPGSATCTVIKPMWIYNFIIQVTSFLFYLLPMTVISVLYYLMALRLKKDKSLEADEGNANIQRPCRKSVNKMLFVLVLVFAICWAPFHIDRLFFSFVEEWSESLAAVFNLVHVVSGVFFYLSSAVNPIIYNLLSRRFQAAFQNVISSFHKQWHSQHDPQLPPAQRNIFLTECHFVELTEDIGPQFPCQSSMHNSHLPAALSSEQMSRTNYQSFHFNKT

Neuromedin-U receptor 1 [4] = target: T1, Neuromedin-U receptor 1; test: Agonist activity at human NMUR1 expressed in CHO cells by calcium mobilization assay; type: cell-based
Neuromedin-U receptor 1 [5] = target: T1, Neuromedin-U receptor 1; test: Agonist activity at human NMUR1 expressed in CHO cells at 10 nM by calcium mobilization assay relative to control; type: cell-based; conditions: read-out: Activity
Neuromedin-U receptor 1 [6] = target: T1, Neuromedin-U receptor 1; test: Agonist activity at human NMUR1 expressed in CHO cells assessed as intrinsic activity at 10^-6 to 10^-12 M by calcium mobilization assay relative to control; type: cell-based; conditions: read-out: Intrinsic activity
[7] = Stability of the compound in 25% human serum assessed as intact residual rate at 50 uM incubated for 180 mins at 37 degreeC; type: ADME, cell-free; conditions: read-out: Stabilty
[8] = Drug metabolism in 25% human serum assessed as M1 metabolite formation at 50 uM incubated for 180 mins at 37 degreeC by HPLC analysis; type: ADME, cell-free; conditions: 3 h
[9] = Drug metabolism in 25% human serum assessed as M2 metabolite formation at 50 uM incubated for 180 mins at 37 degreeC by HPLC analysis; type: ADME, cell-free; conditions: 3 h
Neuromedin-U receptor 2 [10] = target: T2, Neuromedin-U receptor 2; test: Agonist activity at human NMUR2 expressed in CHO cells by calcium mobilization assay; type: cell-based
[11] = Selectivity index, ratio of EC50 for agonist activity for human NMUR2 expressed in CHO cells to EC50 for agonist activity for human NMUR1 expressed in CHO cells by calcium mobilization assay; type: cell-based
Neuromedin-U receptor 2 [12] = target: T2, Neuromedin-U receptor 2; test: Agonist activity at human NMUR2 expressed in CHO cells at 10 nM by calcium mobilization assay relative to control; type: cell-based; conditions: read-out: Activity
[13] = Half life of the compound in 25% human serum; type: ADME, cell-free
[14] = target: T3, Neuromedin-U receptor 1 (Homo sapiens) (UniProt Q9HB89); test: Partial agonist activity at human NMUR1 expressed in CHO cells assessed as intrinsic activity at 10^-6 to 10^-12 M by calcium mobilization assay relative to control; type: functional, cell-based; conditions: filed as partial agonist, dose pM 1-1000000
T3 sequence (whole entry): T1 sequence (Q9HB89 whole entry)

Neuromedin-U receptor 1 [15] = target: T1, Neuromedin-U receptor 1; test: Partial agonist activity at human NMUR1 expressed in CHO cells by calcium mobilization assay; type: functional, cell-based
Neuromedin-U receptor 2 [16] = target: T2, Neuromedin-U receptor 2; test: Agonist activity at human NMUR2 expressed in CHO cells at 1000 nM by calcium mobilization assay relative to control; type: cell-based; conditions: read-out: Activity
Neuromedin-U receptor 1 [17] = target: T1, Neuromedin-U receptor 1; test: Agonist activity at human NMUR1 expressed in CHO cells at 100 nM by calcium mobilization assay relative to control; type: cell-based; conditions: read-out: Activity
Neuromedin-U receptor 1 [18] = target: T1, Neuromedin-U receptor 1; test: Agonist activity at human NMUR1 expressed in CHO cells at 1000 nM by calcium mobilization assay relative to control; type: cell-based; conditions: read-out: Activity
Neuromedin-U receptor 2 [19] = target: T2, Neuromedin-U receptor 2; test: Agonist activity at human NMUR2 expressed in CHO cells at 100 nM by calcium mobilization assay; type: cell-based; conditions: 0.1 µM

COc1ccc(C[C@H](NC(=O)[C@H](Cc2c[nH]c3ccccc23)NC(=O)Cc2cccs2)C(=O)N[C@@H](CCCNC(=N)N)C(=O)N2CCC[C@H]2C(=O)N[C@@H](CCCNC(=N)N)C(=O)N[C@@H](CC(N)=O)C(N)=O)cc1 ({Acetyl(2-thienyl)}-WY(Me)RPRN-NH2)
remaining at 10 min, 50 µM [1]: 48%

C[C@@](Cc1ccccc1)(NC(=O)[C@H](Cc1ccc2ccccc2c1)NC(=O)CCc1cccnc1)C(=O)N[C@@H](CCCNC(=N)N)C(=O)N1CCC[C@H]1C(=O)N[C@@H](CCCNC(=N)N)C(=O)N[C@@H](CC(N)=O)C(N)=O ({Propanoyl(3-(3-pyridyl))}-[2Nal][αMeF]RPRN-NH2)
Activity (Neuromedin-U receptor 1 [2]): Not Active
Activity (Neuromedin-U receptor 2 [3]): Not Active

N=C(N)NCCC[C@H](NC(=O)[C@@H]1CCCN1C(=O)[C@H](CCCNC(=N)N)NC(=O)[C@H](Cc1ccc(-c2ccccc2)cc1)NC(=O)[C@H](Cc1ccc2ccccc2c1)NC(=O)CCc1cccnc1)C(=O)N[C@@H](CC(N)=O)C(N)=O ({Propanoyl(3-(3-pyridyl))}-[2Nal][Bip]RPRN-NH2)
EC50 (Neuromedin-U receptor 1 [4]): 3.2 nM
activity at 0.01 µM (Neuromedin-U receptor 1 [5]): 59%
Emax (Neuromedin-U receptor 1 [6]): 75%
remaining at 3 h, 50 µM [7]: 84%
Drug metabolism [8]: Metabolite_Detected
Drug metabolism [9]: Metabolite_Detected
EC50 (Neuromedin-U receptor 2 [10]): > 1000 nM
Ratio EC50 [11]: > 300

N=C(N)NCCC[C@H](NC(=O)[C@@H]1CCCN1C(=O)[C@H](CCCNC(=N)N)NC(=O)[C@H](Cc1ccccc1)NC(=O)[C@H](Cc1ccc2ccccc2c1)NC(=O)CCc1cccnc1)C(=O)N[C@@H](CC(N)=O)C(N)=O ({Propanoyl(3-(3-pyridyl))}-[2Nal]FRPRN-NH2)
remaining at 10 min, 50 µM [1]: 35%
activity at 0.01 µM (Neuromedin-U receptor 1 [5]): 61%
activity at 0.01 µM (Neuromedin-U receptor 2 [12]): 19%
half-life [13]: 20 min
Intrinsic activity [14]: 71%
EC50 (Neuromedin-U receptor 1 [15]): 1.7 nM

C[C@@](Cc1c[nH]c2ccccc12)(NC(=O)[C@H](Cc1c[nH]c2ccccc12)NC(=O)Cc1cccs1)C(=O)N[C@@H](CCCNC(=N)N)C(=O)N1CCC[C@H]1C(=O)N[C@@H](CCCNC(=N)N)C(=O)N[C@@H](CC(N)=O)C(N)=O ({Acetyl(2-thienyl)}-W[αMeW]RPRN-NH2)
remaining at 3 h, 50 µM [7]: 39%

N=C(N)NCCC[C@H](NC(=O)[C@@H]1CCCN1C(=O)[C@H](CCCNC(=N)N)NC(=O)[C@@H]1Cc2ccccc2CN1C(=O)COc1ccc2ccccc2c1)C(=O)N[C@@H](CC(N)=O)C(N)=O ({Acetyl(2-naphthyloxy)}-[Tic]RPRN-NH2)
EC50 (Neuromedin-U receptor 1 [4]): 30 nM
remaining at 10 min, 50 µM [1]: 64%
activity at 0.01 µM (Neuromedin-U receptor 1 [5]): 30%
Emax (Neuromedin-U receptor 1 [6]): 67%
Ratio EC50 [11]: 30
activity at 1 µM (Neuromedin-U receptor 2 [16]): 48%

N=C(N)NCCC[C@H](NC(=O)[C@@H]1CCCN1C(=O)[C@H](CCCNC(=N)N)NC(=O)[C@H](Cc1ccc(Cc2ccccc2)cc1)NC(=O)[C@H](Cc1c[nH]c2ccccc12)NC(=O)Cc1cccs1)C(=O)N[C@@H](CC(N)=O)C(N)=O ({Acetyl(2-thienyl)}-W[X1]RPRN-NH2)
remaining at 10 min, 50 µM [1]: 95%
activity at 0.1 µM (Neuromedin-U receptor 1 [17]): 88%

N=C(N)NCCC[C@H](NC(=O)[C@@H]1CCCN1C(=O)[C@H](CCCNC(=N)N)NC(=O)[C@H](Cc1ccc(-c2ccccc2)cc1)NC(=O)COc1ccc2ccccc2c1)C(=O)N[C@@H](CC(N)=O)C(N)=O ({Acetyl(2-naphthyloxy)}-[Bip]RPRN-NH2)
Activity (Neuromedin-U receptor 1 [2]): Not Active
Activity (Neuromedin-U receptor 2 [3]): Not Active
activity at 1 µM (Neuromedin-U receptor 1 [18]): 28%

N=C(N)NCCC[C@H](NC(=O)[C@@H]1CCCN1C(=O)[C@H](CCCNC(=N)N)NC(=O)[C@H](Cc1ccc(-c2ccccc2)cc1)NC(=O)[C@H](Cc1c[nH]c2ccccc12)NC(=O)Cc1cccs1)C(=O)N[C@@H](CC(N)=O)C(N)=O ({Acetyl(2-thienyl)}-W[Bip]RPRN-NH2)
remaining at 10 min, 50 µM [1]: 95%
activity at 0.1 µM (Neuromedin-U receptor 1 [17]): 88%
Activity (Neuromedin-U receptor 2 [19]): Not Active
remaining at 3 h, 50 µM [7]: 35%
